Assay results from patent US20160051514A1, “METHODS FOR TREATMENT OF CARDIOMYOPATHY” (THE BRIGHAM AND WOMEN'S HOSPITAL, INC., priority 2013, published 2016).
Entries after “also recorded” stand apart in the source; their conditions may differ.

Key:
[1] = tested on: 2057del2 plakoglobin zebrafish; test: Survival and cardiac physiology in the zebrafish model of ACM; format: in vivo; details: data not shown
Method: In-house software (implemented in MATLAB™) was used to determine heart rate, while measurements of ventricular long and short axes in both diastole and systole were obtained using ImageJ™. Cardiac output was measured as diastolic minus systolic ventricular volume multiplied by heart rate, as outlined by Shin et al (30). Fractional shortening was calculated as end-diastolic diameter minus end-systolic diameter divided by end-diastolic diameter.
Survival studies: Embryos were kept in petri dishes until 7 dpf and then transferred to nursery tanks with larval food. Observations for phenotype and survival were recorded for several weeks. Data are presented as a Kaplan-Meier curve using Graphpad™ software.

[2] = tested on: neonatal rat ventricular myocytes expressing 2057del2 plakoglobin; test: Immunofluorescence of intercalated disk proteins in neonatal rat ventricular myocytes; format: cell-based; details: cells expressing 2057del2 plakoglobin; 5 μM, 24 hr
Method: Neonatal rat ventricular myocyte isolation and culture, stretch protocols: Primary cardiac myocyte cultures were prepared from ventricles of 1-day-old Wistar rat pups (Charles River) as previously described.^9 Cells were plated on collagen-coated plastic chamber slides at a density of […] cells/cm^2 and grown for 4 days prior to experimentation. In selected experiments, monolayers grown on collagen--coated silicone membranes were subjected to linear pulsatile stretch using a custom-designed apparatus as described in previous studies.'° Cells were stretched to 110% of resting length at a. frequency of 3 Hz for 1-4 hr in serum-free medium. In other experiments cultures were incubated with reagents including pifitlirin A (5 μM, 1 hr) and SB216763 (5 μM, 24 hr) prior to experimentation. All protocols were approved by the Institutional Animal Care and Use Committee (IACUC).
Viral transfection: A recombinant adenoviral construct expressing 2057del2-plakoglobin was created with the ViraPower Adenoviral Expression system (Invitrogen) using the pAd/CMV/V5-DEST vector through LR clonase-mediated recombination. The V5-tag was used to identify the mutant protein and distinguish it from wildtype plakoglobin. Two days post-plating, monolayers were exposed to viral solution (1:130 dilution in serum-free media, 37° C.) for 1 hr after which viral solution was replaced with complete medium in the presence or absence of reagents.
Immunofluoresence staining and microscopy in cultured cells: Cultures were rinsed in serum-free medium and fixed in 4% paraformaldehyde at room temperature for 5 min or in acetone at −20° C. for 10 min. Fixed cells were immunostained with mouse monoclonal anti-plakoglobin (Sigma), anti-N-cadhcrin (Sigma), anti-Cx43 (Millipore), anti-desmopla.kin (Fitzgerald), anti-SAP97 (Santa Cruz Biotechnology) antibodies and anti-Nav1.5 (kindly provided by Dr. Hugues Abriel, University of Bern, Switzerland) antibodies. Specific immunoreactive signal was detected by laser scanning confocal microscopy as previously described.”
Neonatal rat ventricular myocyte isolation, culture, stretch protocols: Primary cardiac myocyte cultures were prepared from ventricles of 1-day-old Wistar rat pups (Charles River) as previously described (36). Cells were plated on collagen-coated plastic chamber slides at a density of 2.4×10^5 cells/cm2 and grown for 4 days prior to experimentation. In selected experiments, monolayers grown on collagen-coated silicone membranes were subjected to linear pulsatile stretch using a custom-designed apparatus as described in previous studies (35). Cells were stretched to 110% of resting length at a frequency of 3 Hz for 1-4 hr in serum-free medium. In other experiments cultures were incubated with reagents including pifithrin A (5 μM, 1 hr) and SB216763 (0.1-10 μM for 12 or 24 hr) prior to experimentation. Vehicle controls (DMSO) were included in all experiments.
Viral transfection: A recombinant adenoviral construct expressing 2057del2 plakoglobin was created with the ViraPower Adenoviral Expression™ system (Invitrogen) using the pAd/CMV/V5-DEST vector through LR clonase-mediated recombination. The V5-tag was used to identify the mutant protein and distinguish it from wildtype plakoglobin. Two days post-plating, monolayers were exposed to viral solution (1:130 dilution in serum-free media, 37° C.) for 1 hr after which viral solution was replaced with complete medium in the presence or absence of reagents. Immunofluorescence staining and microscopy in cultured cells: Cultures were rinsed in serum-free medium and fixed in 4% paraformaldehyde at 25° C. for 5 min or in acetone at −20° C. for 10 min. Fixed cells were immunostained with mouse monoclonal anti-plakoglobin (Sigma), anti-N-cadherin (Sigma), anti-Cx43 (Millipore), anti-desmoplakin (Fitzgerald), anti-SAP97 (Santa Cruz Biotechnology) antibodies and anti-Nav1.5 antibodies (rabbit polyclonal).

[3] = tested on: neonatal rat ventricular myocytes expressing 2057del2 plakoglobin; test: TUNEL assay of myocyte apoptosis; format: cell-based
Description: (§1) TUNEL assay: Apoptotic cells in cultures were detected by terminal deoxynucleotidyl transferase-mediated biotinylated UTP nick end-labeling (TUNEL) assay using the ApopTag™ Fluorescein Direct in Situ Apoptosis Detection Kit (Millipore) as previously described.^9 Nuclei were stained with DAPI, and TUNEL-positive and total nuclei were counted under a laser scanning confocal microscope in 5 fields per chamber.
as §1, with “ApopTag” for “ApopTag™”, “KitTM” for “Kit”, “according to the manufacturer's instructions.” for “as previously described.^9”, “DAPI;” for “DAPI, and”, “chamber or silicone membrane in stretch experiments.” for “chamber.”

O=C1Nc2cc(Br)ccc2/C1=C1/Nc2ccccc2/C1=N\O [BIO, 6-bromoindirubin-3′-oxime, reference compound]
Effectiveness of other GSK-3β inhibitors in attenuating the mutant phenotype compared with SB216763 [1]: do not exhibit the therapeutic benefits; also recorded: none of which were as effective

Cn1cc(C2=C(c3coc4ccccc34)C(=O)NC2=O)c2cc(Br)ccc21 [BIP 135, reference compound]
Effectiveness of other GSK-3β inhibitors in attenuating the mutant phenotype compared with SB216763 [1]: none of which were as effective

Cc1c[nH]c(-c2cnc(NCCNc3ccc(C#N)cn3)nc2-c2ccc(Cl)cc2Cl)n1 [CHIR99021, reference compound]
Subcellular distribution of plakoglobin immunoreactive signal (junctional vs intracellular/nuclear) [2]: intensified plakoglobin signal in nuclei
Effectiveness of other GSK-3β inhibitors in attenuating the mutant phenotype compared with SB216763 [1]: do not exhibit the therapeutic benefits; also recorded: none of which were as effective

[Cl-].[Li+] [LiC1, reference compound]
Effectiveness of other GSK-3β inhibitors in attenuating the mutant phenotype compared with SB216763 [1]: none of which were as effective

O=C(Nc1ccc([N+](=O)[O-])cc1Cl)c1cc(Cl)ccc1O [niclosamide, reference compound]
Subcellular distribution of plakoglobin immunoreactive signal (junctional vs intracellular/nuclear) [2]: increased nuclear localization of plakoglobin

Cc1ccc(C(=O)Cn2c3c(sc2=N)CCCC3)cc1 [pifithrin-A, reference compound]
Apoptosis in transfected myocytes exposed to stretch ([3]; 4 hr of stretch, vs stretch without inhibitor): significantly reduced apoptosis
Apoptosis in cells expressing 2057del2 plakoglobin ([3]; pifithrin-A 5 μM): could be prevented
